“Also recorded” adds a separate entry of the source.
What was measured:
EGFR = molecular target: T1, EGFR (Homo sapiens, UniProt P00533); experiment: HotSpot in vitro kinase assay, EGFR; format: biochemical; details: for inhibition at 10 µM: single dose 10 µM compound, 10 µM ATP
T1 construct: purchased Reaction Biology Corp

HER2 = molecular target: T2, HER2 (Homo sapiens, UniProt P04626); experiment: HotSpot in vitro kinase assay, HER2; format: biochemical; details: single dose 10 µM compound, 10 µM ATP
T2 construct: purchased Reaction Biology Corp

CDK2/cyclin A = molecular target: T3, CDK2/cyclin A (Homo sapiens, UniProt P24941); experiment: Kinase selectivity panel, CDK2/cyclin A; format: biochemical; details: single dose 10 µM
T3 construct: purchased Reaction Biology Corp

c-MET = molecular target: T4, c-MET (Homo sapiens, UniProt P08581); experiment: Kinase selectivity panel, c-MET; format: biochemical; details: single dose 10 µM
T4 construct: purchased Reaction Biology Corp
T4 sequence (P08581 25-1390): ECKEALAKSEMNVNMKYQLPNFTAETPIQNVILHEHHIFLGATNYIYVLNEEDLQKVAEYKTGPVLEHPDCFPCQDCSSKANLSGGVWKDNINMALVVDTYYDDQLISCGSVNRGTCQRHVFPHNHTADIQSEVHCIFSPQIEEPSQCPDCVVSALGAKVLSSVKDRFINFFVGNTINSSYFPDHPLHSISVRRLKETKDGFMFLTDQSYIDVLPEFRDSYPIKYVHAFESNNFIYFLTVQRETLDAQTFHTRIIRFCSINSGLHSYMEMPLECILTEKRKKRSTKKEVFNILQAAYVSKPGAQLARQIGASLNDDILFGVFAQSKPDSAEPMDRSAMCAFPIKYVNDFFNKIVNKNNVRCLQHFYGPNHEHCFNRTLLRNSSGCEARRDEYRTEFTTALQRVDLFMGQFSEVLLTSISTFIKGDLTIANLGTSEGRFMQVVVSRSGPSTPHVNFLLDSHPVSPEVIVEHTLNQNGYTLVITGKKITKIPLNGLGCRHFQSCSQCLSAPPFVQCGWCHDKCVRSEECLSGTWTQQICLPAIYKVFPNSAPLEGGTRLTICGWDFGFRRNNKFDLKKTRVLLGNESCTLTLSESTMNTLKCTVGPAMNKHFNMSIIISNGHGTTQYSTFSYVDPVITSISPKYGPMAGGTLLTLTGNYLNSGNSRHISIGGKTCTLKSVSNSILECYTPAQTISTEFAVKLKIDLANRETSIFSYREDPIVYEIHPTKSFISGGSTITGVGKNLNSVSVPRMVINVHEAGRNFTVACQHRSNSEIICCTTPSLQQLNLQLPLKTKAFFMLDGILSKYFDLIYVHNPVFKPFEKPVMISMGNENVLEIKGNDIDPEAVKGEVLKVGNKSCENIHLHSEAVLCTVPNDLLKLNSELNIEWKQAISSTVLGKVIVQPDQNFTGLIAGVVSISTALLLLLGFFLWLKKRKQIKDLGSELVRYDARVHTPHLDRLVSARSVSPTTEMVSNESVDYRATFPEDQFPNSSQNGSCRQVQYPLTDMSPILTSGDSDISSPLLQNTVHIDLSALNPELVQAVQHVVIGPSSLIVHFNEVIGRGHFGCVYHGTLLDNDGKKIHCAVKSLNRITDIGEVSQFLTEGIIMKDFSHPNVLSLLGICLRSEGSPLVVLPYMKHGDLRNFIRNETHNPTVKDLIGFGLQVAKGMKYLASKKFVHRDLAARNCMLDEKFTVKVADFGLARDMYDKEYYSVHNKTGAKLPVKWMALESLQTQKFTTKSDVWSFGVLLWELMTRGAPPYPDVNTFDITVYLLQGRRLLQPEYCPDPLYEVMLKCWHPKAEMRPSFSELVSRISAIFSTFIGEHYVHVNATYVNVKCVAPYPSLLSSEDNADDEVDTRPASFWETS

FGFR1 = molecular target: T5, FGFR1 (Homo sapiens, UniProt P11362); experiment: Kinase selectivity panel, FGFR1; format: biochemical; details: single dose 10 µM
T5 construct: purchased Reaction Biology Corp
T5 sequence (P11362 22-822): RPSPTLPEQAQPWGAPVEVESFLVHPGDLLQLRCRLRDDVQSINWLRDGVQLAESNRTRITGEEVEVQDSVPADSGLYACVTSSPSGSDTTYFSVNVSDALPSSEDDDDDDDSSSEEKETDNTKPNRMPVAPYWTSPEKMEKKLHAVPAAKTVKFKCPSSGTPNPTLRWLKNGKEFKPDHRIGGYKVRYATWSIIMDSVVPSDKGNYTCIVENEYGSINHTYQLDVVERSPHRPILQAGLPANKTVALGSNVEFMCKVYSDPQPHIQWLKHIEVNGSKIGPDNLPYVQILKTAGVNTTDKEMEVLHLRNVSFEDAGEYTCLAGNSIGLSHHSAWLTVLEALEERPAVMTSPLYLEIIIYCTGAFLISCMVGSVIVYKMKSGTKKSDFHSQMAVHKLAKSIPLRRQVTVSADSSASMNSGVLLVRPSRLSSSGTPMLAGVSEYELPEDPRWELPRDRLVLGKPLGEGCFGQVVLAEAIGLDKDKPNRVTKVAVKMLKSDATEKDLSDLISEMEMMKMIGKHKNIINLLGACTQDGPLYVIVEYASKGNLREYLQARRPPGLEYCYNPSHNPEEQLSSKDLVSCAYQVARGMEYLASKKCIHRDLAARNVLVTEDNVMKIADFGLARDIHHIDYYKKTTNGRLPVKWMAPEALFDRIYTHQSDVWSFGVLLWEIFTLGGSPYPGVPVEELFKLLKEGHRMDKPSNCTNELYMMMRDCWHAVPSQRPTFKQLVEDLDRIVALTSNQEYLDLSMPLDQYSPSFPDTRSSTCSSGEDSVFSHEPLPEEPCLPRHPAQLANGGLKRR

KDR/VEGFR2 = molecular target: T6, KDR/VEGFR2 (Homo sapiens, UniProt P35968); experiment: Kinase selectivity panel, KDR/VEGFR2; format: biochemical; details: single dose 10 µM
T6 construct: purchased Reaction Biology Corp
T6 sequence (P35968 20-1356): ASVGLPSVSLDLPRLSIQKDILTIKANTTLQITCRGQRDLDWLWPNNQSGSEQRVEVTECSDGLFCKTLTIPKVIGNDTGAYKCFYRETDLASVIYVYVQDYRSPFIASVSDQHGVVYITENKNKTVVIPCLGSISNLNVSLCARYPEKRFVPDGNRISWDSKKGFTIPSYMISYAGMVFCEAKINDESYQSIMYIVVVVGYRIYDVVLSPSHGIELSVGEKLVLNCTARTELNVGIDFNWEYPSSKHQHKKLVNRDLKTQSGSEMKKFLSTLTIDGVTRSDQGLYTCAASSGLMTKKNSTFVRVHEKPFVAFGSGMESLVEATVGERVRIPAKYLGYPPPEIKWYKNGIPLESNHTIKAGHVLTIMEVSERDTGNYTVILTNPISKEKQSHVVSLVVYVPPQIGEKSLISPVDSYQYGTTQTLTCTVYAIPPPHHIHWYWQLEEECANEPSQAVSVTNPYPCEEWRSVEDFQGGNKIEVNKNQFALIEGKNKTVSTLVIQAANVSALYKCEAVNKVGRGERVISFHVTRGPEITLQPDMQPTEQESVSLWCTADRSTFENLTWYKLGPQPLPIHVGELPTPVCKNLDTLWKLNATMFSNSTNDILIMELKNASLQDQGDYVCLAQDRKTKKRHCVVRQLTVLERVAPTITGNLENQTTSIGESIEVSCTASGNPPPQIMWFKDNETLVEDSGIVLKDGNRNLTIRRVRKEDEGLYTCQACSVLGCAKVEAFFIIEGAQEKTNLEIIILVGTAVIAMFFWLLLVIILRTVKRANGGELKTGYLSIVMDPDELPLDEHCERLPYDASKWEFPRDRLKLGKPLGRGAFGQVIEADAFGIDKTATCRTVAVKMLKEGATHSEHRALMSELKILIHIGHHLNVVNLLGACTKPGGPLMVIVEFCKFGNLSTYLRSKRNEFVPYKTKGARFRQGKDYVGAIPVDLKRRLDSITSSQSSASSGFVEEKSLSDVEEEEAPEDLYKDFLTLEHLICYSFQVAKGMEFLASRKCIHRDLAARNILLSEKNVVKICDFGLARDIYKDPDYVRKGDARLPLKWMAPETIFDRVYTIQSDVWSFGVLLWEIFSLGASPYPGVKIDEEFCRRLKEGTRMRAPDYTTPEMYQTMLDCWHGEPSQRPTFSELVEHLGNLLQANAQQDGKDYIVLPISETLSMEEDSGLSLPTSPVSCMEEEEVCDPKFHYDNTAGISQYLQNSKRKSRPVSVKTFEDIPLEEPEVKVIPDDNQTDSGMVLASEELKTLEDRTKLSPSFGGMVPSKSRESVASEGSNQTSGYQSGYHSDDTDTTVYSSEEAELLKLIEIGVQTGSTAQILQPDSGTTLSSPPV

P38a/MAPK14 = molecular target: T7, P38a/MAPK14 (Homo sapiens, UniProt Q16539); experiment: Kinase selectivity panel, P38a/MAPK14; format: biochemical; details: single dose 10 µM
T7 construct: purchased Reaction Biology Corp
T7 sequence (Q16539 whole entry): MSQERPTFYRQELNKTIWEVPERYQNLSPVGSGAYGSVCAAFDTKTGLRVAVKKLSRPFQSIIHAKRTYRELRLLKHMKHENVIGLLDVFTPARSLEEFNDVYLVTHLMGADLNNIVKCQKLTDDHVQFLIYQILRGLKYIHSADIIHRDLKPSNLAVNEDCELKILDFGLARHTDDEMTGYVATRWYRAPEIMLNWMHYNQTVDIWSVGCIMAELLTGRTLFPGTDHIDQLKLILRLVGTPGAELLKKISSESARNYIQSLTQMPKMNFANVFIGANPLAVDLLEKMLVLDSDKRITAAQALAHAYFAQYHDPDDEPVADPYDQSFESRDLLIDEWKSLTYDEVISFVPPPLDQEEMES

T1 sequence (P00533 25-1210): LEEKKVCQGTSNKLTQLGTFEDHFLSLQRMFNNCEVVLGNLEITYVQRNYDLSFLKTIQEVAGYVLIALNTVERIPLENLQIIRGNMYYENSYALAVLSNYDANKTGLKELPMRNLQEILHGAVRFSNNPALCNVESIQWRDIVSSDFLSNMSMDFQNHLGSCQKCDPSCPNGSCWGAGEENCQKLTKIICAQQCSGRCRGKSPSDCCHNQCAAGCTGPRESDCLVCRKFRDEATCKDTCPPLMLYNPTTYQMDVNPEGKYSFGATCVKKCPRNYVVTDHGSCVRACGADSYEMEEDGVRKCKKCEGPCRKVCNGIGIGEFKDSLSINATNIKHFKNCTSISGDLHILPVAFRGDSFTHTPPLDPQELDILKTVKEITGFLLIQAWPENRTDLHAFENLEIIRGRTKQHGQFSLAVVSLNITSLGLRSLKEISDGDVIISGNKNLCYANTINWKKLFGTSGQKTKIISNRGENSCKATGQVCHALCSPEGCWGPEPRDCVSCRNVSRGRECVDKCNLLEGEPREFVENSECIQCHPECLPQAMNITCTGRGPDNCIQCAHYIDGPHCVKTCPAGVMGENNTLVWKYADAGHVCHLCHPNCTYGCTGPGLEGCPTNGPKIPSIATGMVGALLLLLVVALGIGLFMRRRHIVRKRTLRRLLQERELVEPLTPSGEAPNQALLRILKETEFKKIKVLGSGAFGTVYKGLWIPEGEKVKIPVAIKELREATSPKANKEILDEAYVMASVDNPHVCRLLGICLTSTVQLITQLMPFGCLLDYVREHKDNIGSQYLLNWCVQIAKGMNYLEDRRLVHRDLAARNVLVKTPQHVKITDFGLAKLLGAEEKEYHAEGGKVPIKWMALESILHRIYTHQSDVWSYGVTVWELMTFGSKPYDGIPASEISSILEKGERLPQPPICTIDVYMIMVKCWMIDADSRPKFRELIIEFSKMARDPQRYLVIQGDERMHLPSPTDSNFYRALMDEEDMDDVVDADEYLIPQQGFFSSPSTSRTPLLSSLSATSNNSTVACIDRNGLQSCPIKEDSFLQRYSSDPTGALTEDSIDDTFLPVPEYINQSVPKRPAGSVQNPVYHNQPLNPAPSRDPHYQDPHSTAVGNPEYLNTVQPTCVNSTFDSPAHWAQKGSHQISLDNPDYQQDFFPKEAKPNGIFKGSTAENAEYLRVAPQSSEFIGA

Row | inhibition at 10 µM (EGFR) [%] | inhibition at 10 µM (HER2) [%] | melting point [°C] | SMILES | further results
1 | 99.3 | 90 | 194 to 195 | COc1cc2ncnc(Nc3ccc4ncccc4c3)c2cc1OCCCCCn1ccnc1[N+](=O)[O-] [Compound 6c, 7-Methoxy-6-((5-(2-nitro-1H-imidazol-1-yl)pentyl)oxy)-N-(quinolin-6-yl)quinazolin-4-amine] | –
2 | 94.7 | 47.3 | 191 to 192 | COc1cc2ncnc(Nc3ccc(C#N)cc3)c2cc1OCCCCCCn1ccnc1[N+](=O)[O-] [Compound 6h, 4-((7-Methoxy-6-((6-(2-nitro-1H-imidazol-1-yl)hexyl)oxy)quinazolin-4-yl)amino)benzonitrile] | –
3 | 91.8 | 43.1 | 196 to 197 | COc1cc2ncnc(Nc3ccc(C#N)cc3)c2cc1OCCCCCn1ccnc1[N+](=O)[O-] [Compound 6g, 4-((7-Methoxy-6-((5-(2-nitro-1H-imidazol-1-yl)pentyl)oxy)quinazolin-4-yl)amino)benzonitrile] | –
4 | 98.6 | 91.2 | 158 to 159 | COc1cc2ncnc(Nc3ccc(OCc4ccccn4)c(Cl)c3)c2cc1OCCCCCn1ccnc1[N+](=O)[O-] [Compound 6k, N-(3-Chloro-4-(pyridin-2-ylmethoxy)phenyl)-7-methoxy-6-((5-(2-nitro-1H-imidazol-1-yl)pentyl)oxy)quinazolin-4-amine] | –
5 | 67.3 | 8.78 | 245 to 246 | COc1cc2ncnc(Nc3ccc(C#N)cc3)c2cc1OCCCn1ccnc1[N+](=O)[O-] [Compound 6e, 4-((7-Methoxy-6-(3-(2-nitro-1H-imidazol-1-yl)propoxy)quinazolin-4-yl)amino)benzonitrile] | –
6 | 99.1 | 79.7 | 176 to 177 | COc1cc2ncnc(Nc3ccc4ncccc4c3)c2cc1OCCCCCCn1ccnc1[N+](=O)[O-] [Compound 6d, 7-Methoxy-6-((6-(2-nitro-1H-imidazol-1-yl)hexyl)oxy)-N-(quinolin-6-yl)quinazolin-4-amine] | –
7 | 98.6 | 89 | 191 to 192 | COc1cc2ncnc(Nc3ccc(OCc4ccccn4)c(Cl)c3)c2cc1OCCCCCCn1ccnc1[N+](=O)[O-] [Compound 6l, N-(3-Chloro-4-(pyridin-2-ylmethoxy)phenyl)-7-methoxy-6-((6-(2-nitro-1H-imidazol-1-yl)hexyl)oxy)quinazolin-4-amine] | –
8 | 97.7 | 87.2 | 184 to 185 | COc1cc2ncnc(Nc3ccc(OCc4ccccn4)c(Cl)c3)c2cc1OCCCn1ccnc1[N+](=O)[O-] [Compound 6i, N-(3-Chloro-4-(pyridin-2-ylmethoxy)phenyl)-7-methoxy-6-(3-(2-nitro-1H-imidazol-1-yl)propoxy)quinazolin-4-amine] | –
9 | 98.8 | 74.7 | 249 to 250 | COc1cc2ncnc(Nc3ccc4ncccc4c3)c2cc1OCCCn1ccnc1[N+](=O)[O-] [Compound 6a, 7-Methoxy-6-(3-(2-nitro-1H-imidazol-1-yl)propoxy)-N-(quinolin-6-yl)quinazolin-4-amine] | –

Row | SMILES | inhibition at 10 µM (EGFR) [%] | inhibition at 10 µM (HER2) [%] | melting point [°C] | further results
10 | COc1cc2ncnc(Nc3ccc(C#N)cc3)c2cc1OCCCCn1ccnc1[N+](=O)[O-] [Compound 6f, 4-((7-Methoxy-6-(4-(2-nitro-1H-imidazol-1-yl)butoxy)quinazolin-4-yl)amino)benzonitrile] | 76.5 | 11.7 | 200 to 201 | –
11 | COc1cc2ncnc(Nc3ccc(OCc4ccccn4)c(Cl)c3)c2cc1OCCCCn1ccnc1[N+](=O)[O-] [Compound 6j, N-(3-Chloro-4-(pyridin-2-ylmethoxy)phenyl)-7-methoxy-6-(4-(2-nitro-1H-imidazol-1-yl)butoxy)quinazolin-4-amine] | 99 | 96.7 | – | IC50 (EGFR; 10-dose assay, 3-fold serial dilution starting at 10 µM): 1.8 nM; fold more potent than lapatinib over EGFR (EGFR; ratio of EGFR IC50 values): 6 fold; fold more potent than staurosporine over EGFR (EGFR; ratio of EGFR IC50 values): 50 fold; % Kinase Inhibition at 10 µM CDK2/cyclin A (CDK2/cyclin A): almost no inhibitory activity; also recorded: poor to weak inhibitory activity; inhibition at 10 µM (CDK2/cyclin A): -0.83%; % Kinase Inhibition at 10 µM c-MET (c-MET): almost no inhibitory activity; also recorded: poor to weak inhibitory activity; inhibition at 10 µM (c-MET): 19.3%; % Kinase Inhibition at 10 µM FGFR1 (FGFR1): almost no inhibitory activity; also recorded: poor to weak inhibitory activity; inhibition at 10 µM (FGFR1): 13.9%; % Kinase Inhibition at 10 µM KDR/VEGFR2 (KDR/VEGFR2): almost no inhibitory activity; also recorded: poor to weak inhibitory activity; inhibition at 10 µM (KDR/VEGFR2): 10.3%; % Kinase Inhibition at 10 µM P38a/MAPK14 (P38a/MAPK14): almost no inhibitory activity; also recorded: poor to weak inhibitory activity; inhibition at 10 µM (P38a/MAPK14): -33.3%
12 | COc1cc2ncnc(Nc3ccc4ncccc4c3)c2cc1OCCCCn1ccnc1[N+](=O)[O-] [Compound 6b, 7-Methoxy-6-(4-(2-nitro-1H-imidazol-1-yl)butoxy)-N-(quinolin-6-yl)quinazolin-4-amine] | 99.3 | 78 | 201 to 202 | –

Reference: paper PMC9862743 (Pharmaceuticals, 2022)
